Source: PubChem BioAssay AID1963974 (Molecular Pharmacology Branch, DTP, NCI, 2024)

Test system: 648629-189-R-J1-PDC spheroids with HUVEC/MSC, viability
Assay: Anticancer human tumor 648629-189-R-J1-PDC patient-derived bladder carcinoma cell line growth inhibition [PI3K]
Details: for IC50: curve of first compound; for viability, T/C: stronger effect = lower value
Summary of the method: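 We assembled tumor spheroids that included a stromal compartment of HUVEC and MSCs, then exposed them to targeted agents alone and together with PI3K pathway inhibitors. Concentration series descended by half-log from clinically achievable Cmax levels. Viability served as the endpoint.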

[1] = second compound 0.0316 µM, first compound 0.000316 µM
[2] = second compound 0.0316 µM, first compound 0.001 µM
[3] = second compound 0.0316 µM, first compound 0.00316 µM
[4] = second compound 0.0316 µM, first compound 0.01 µM
[5] = second compound 0.0316 µM, first compound 0.0316 µM
[6] = second compound 0.0316 µM, first compound 0.1 µM
[7] = second compound 0.1 µM, first compound 0.000316 µM
[8] = second compound 0.1 µM, first compound 0.001 µM
[9] = second compound 0.1 µM, first compound 0.00316 µM
[10] = second compound 0.1 µM, first compound 0.01 µM
[11] = second compound 0.1 µM, first compound 0.0316 µM
[12] = second compound 0.1 µM, first compound 0.1 µM
[13] = second compound 0.316 µM, first compound 0.000316 µM
[14] = second compound 0.316 µM, first compound 0.001 µM
[15] = second compound 0.316 µM, first compound 0.00316 µM
[16] = second compound 0.316 µM, first compound 0.01 µM
[17] = second compound 0.316 µM, first compound 0.0316 µM
[18] = second compound 0.316 µM, first compound 0.1 µM
[19] = second compound 1 µM, first compound 0.000316 µM
[20] = second compound 1 µM, first compound 0.001 µM
[21] = second compound 1 µM, first compound 0.00316 µM
[22] = second compound 1 µM, first compound 0.01 µM
[23] = second compound 1 µM, first compound 0.0316 µM
[24] = second compound 1 µM, first compound 0.1 µM
[25] = second compound 3.16 µM, first compound 0.000316 µM
[26] = second compound 3.16 µM, first compound 0.001 µM
[27] = second compound 3.16 µM, first compound 0.00316 µM
[28] = second compound 3.16 µM, first compound 0.01 µM
[29] = second compound 3.16 µM, first compound 0.0316 µM
[30] = second compound 3.16 µM, first compound 0.1 µM
[31] = second compound 10 µM, first compound 0.000316 µM
[32] = second compound 10 µM, first compound 0.001 µM
[33] = second compound 10 µM, first compound 0.00316 µM
[34] = second compound 10 µM, first compound 0.01 µM
[35] = second compound 10 µM, first compound 0.0316 µM
[36] = second compound 10 µM, first compound 0.1 µM
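Further: spheroids exposed to agents for seven days before reading.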
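Wherever viability, T/C is given: percent of vehicle control luminescence where 100% = DMSO treated spheroids.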

**Q.** With CC(C)n1nc(-c2ccc3oc(N)nc3c2)c2c(N)ncnc21 + Cc1nc(NC(=O)N2CCCC2C(N)=O)sc1-c1ccnc(C(C)(C)C(F)(F)F)c1 as the molecule, how does the IC50 (second compound 0.0316 µM) read?
**A.** Its IC50 is 58.6 nM.

**Q.** And the IC50 (second compound 0.1 µM)?
**A.** The IC50 was 56.7 nM.

**Q.** What about the IC50 (second compound 0.316 µM) of the same molecule?
**A.** Its IC50 is 52.7 nM.

**Q.** And the IC50 (second compound 1 µM)?
**A.** The IC50 was 33.3 nM.

**Q.** What about the IC50 (second compound 3.16 µM) of the same molecule?
**A.** The IC50 was 11 nM.

**Q.** And the IC50 (second compound 10 µM)?
**A.** Its IC50 is under 0.316 nM.

**Q.** What about the viability, T/C [1] of the same molecule?
**A.** Its viability, T/C is 111%.

**Q.** What about the viability, T/C [2] of the same molecule?
**A.** Its viability, T/C is 95.1%.

**Q.** And the viability, T/C [3]?
**A.** The viability, T/C was 109%.

**Q.** What about the viability, T/C [4] of the same molecule?
**A.** The viability, T/C was 97.5%.

**Q.** What about the viability, T/C [5] of the same molecule?
**A.** The viability, T/C was 70.2%.

**Q.** What about the viability, T/C [6] of the same molecule?
**A.** The viability, T/C was 32.6%.

**Q.** What about the viability, T/C [7] of the same molecule?
**A.** The viability, T/C was 102%.

**Q.** What about the viability, T/C [8] of the same molecule?
**A.** The viability, T/C was 94.9%.

**Q.** And the viability, T/C [9]?
**A.** Its viability, T/C is 91.7%.

**Q.** And the viability, T/C [10]?
**A.** The viability, T/C was 84.6%.

**Q.** What about the viability, T/C [11] of the same molecule?
**A.** The viability, T/C was 68%.

**Q.** What about the viability, T/C [12] of the same molecule?
**A.** Its viability, T/C is 32.8%.

**Q.** And the viability, T/C [13]?
**A.** The viability, T/C was 87.3%.

**Q.** What about the viability, T/C [14] of the same molecule?
**A.** The viability, T/C was 83.5%.

**Q.** What about the viability, T/C [15] of the same molecule?
**A.** Its viability, T/C is 83.5%.

**Q.** What about the viability, T/C [16] of the same molecule?
**A.** Its viability, T/C is 82%.

**Q.** What about the viability, T/C [17] of the same molecule?
**A.** The viability, T/C was 66.1%.

**Q.** What about the viability, T/C [18] of the same molecule?
**A.** Its viability, T/C is 29.1%.

**Q.** What about the viability, T/C [19] of the same molecule?
**A.** The viability, T/C was 80.9%.

**Q.** What about the viability, T/C [20] of the same molecule?
**A.** The viability, T/C was 85.2%.

**Q.** What about the viability, T/C [21] of the same molecule?
**A.** The viability, T/C was 74.2%.

**Q.** What about the viability, T/C [22] of the same molecule?
**A.** Its viability, T/C is 64.5%.

**Q.** And the viability, T/C [23]?
**A.** The viability, T/C was 53.9%.

**Q.** And the viability, T/C [24]?
**A.** The viability, T/C was 23.2%.

**Q.** And the viability, T/C [25]?
**A.** Its viability, T/C is 63.9%.

**Q.** And the viability, T/C [26]?
**A.** Its viability, T/C is 54.8%.

**Q.** What about the viability, T/C [27] of the same molecule?
**A.** Its viability, T/C is 60.5%.

**Q.** And the viability, T/C [28]?
**A.** Its viability, T/C is 48.6%.

**Q.** And the viability, T/C [29]?
**A.** Its viability, T/C is 40.7%.

**Q.** And the viability, T/C [30]?
**A.** The viability, T/C was 19.1%.

**Q.** What about the viability, T/C [31] of the same molecule?
**A.** The viability, T/C was 41.4%.

**Q.** And the viability, T/C [32]?
**A.** The viability, T/C was 37.5%.

**Q.** What about the viability, T/C [33] of the same molecule?
**A.** Its viability, T/C is 37.5%.

**Q.** And the viability, T/C [34]?
**A.** Its viability, T/C is 33.6%.

**Q.** And the viability, T/C [35]?
**A.** Its viability, T/C is 27.7%.

**Q.** And the viability, T/C [36]?
**A.** The viability, T/C was 9.34%.

**Q.** How did the IC50 (second compound 0.0316 µM) turn out when CC(=O)c1c(C)c2cnc(Nc3ccc(N4CCNCC4)cn3)nc2n(C2CCCC2)c1=O + Cc1nc(NC(=O)N2CCCC2C(N)=O)sc1-c1ccnc(C(C)(C)C(F)(F)F)c1 was run?
**A.** The IC50 was over 100 nM.

**Q.** And the IC50 (second compound 0.1 µM)?
**A.** The IC50 was over 100 nM.

**Q.** What about the IC50 (second compound 0.316 µM) of the same molecule?
**A.** Its IC50 is over 100 nM.

**Q.** What about the IC50 (second compound 1 µM) of the same molecule?
**A.** The IC50 was over 100 nM.

**Q.** And the IC50 (second compound 3.16 µM)?
**A.** The IC50 was over 100 nM.

**Q.** What about the IC50 (second compound 10 µM) of the same molecule?
**A.** The IC50 was under 0.316 nM.

**Q.** And the viability, T/C [1]?
**A.** The viability, T/C was 91.4%.

**Q.** What about the viability, T/C [2] of the same molecule?
**A.** Its viability, T/C is 91.7%.

**Q.** What about the viability, T/C [3] of the same molecule?
**A.** Its viability, T/C is 100%.

**Q.** And the viability, T/C [4]?
**A.** The viability, T/C was 100%.

**Q.** What about the viability, T/C [5] of the same molecule?
**A.** The viability, T/C was 96.6%.

**Q.** What about the viability, T/C [6] of the same molecule?
**A.** The viability, T/C was 101%.

**Q.** What about the viability, T/C [7] of the same molecule?
**A.** The viability, T/C was 91.1%.

**Q.** And the viability, T/C [8]?
**A.** Its viability, T/C is 96.9%.

**Q.** And the viability, T/C [9]?
**A.** The viability, T/C was 93.7%.

**Q.** What about the viability, T/C [10] of the same molecule?
**A.** Its viability, T/C is 91.9%.

**Q.** What about the viability, T/C [11] of the same molecule?
**A.** Its viability, T/C is 107%.

**Q.** What about the viability, T/C [12] of the same molecule?
**A.** Its viability, T/C is 91.2%.

**Q.** What about the viability, T/C [13] of the same molecule?
**A.** The viability, T/C was 80.9%.

**Q.** What about the viability, T/C [14] of the same molecule?
**A.** Its viability, T/C is 86.1%.

**Q.** And the viability, T/C [15]?
**A.** The viability, T/C was 85.1%.

**Q.** And the viability, T/C [16]?
**A.** The viability, T/C was 84.1%.

**Q.** And the viability, T/C [17]?
**A.** Its viability, T/C is 90.2%.

**Q.** What about the viability, T/C [18] of the same molecule?
**A.** The viability, T/C was 85.3%.

**Q.** And the viability, T/C [19]?
**A.** Its viability, T/C is 72.4%.

**Q.** And the viability, T/C [20]?
**A.** The viability, T/C was 68.1%.

**Q.** What about the viability, T/C [21] of the same molecule?
**A.** Its viability, T/C is 73.7%.

**Q.** What about the viability, T/C [22] of the same molecule?
**A.** The viability, T/C was 71.7%.

**Q.** What about the viability, T/C [23] of the same molecule?
**A.** Its viability, T/C is 70.5%.

**Q.** And the viability, T/C [24]?
**A.** Its viability, T/C is 71.9%.

**Q.** What about the viability, T/C [25] of the same molecule?
**A.** The viability, T/C was 52.6%.

**Q.** What about the viability, T/C [26] of the same molecule?
**A.** Its viability, T/C is 53.2%.

**Q.** And the viability, T/C [27]?
**A.** Its viability, T/C is 61.6%.

**Q.** What about the viability, T/C [28] of the same molecule?
**A.** The viability, T/C was 54.9%.

**Q.** And the viability, T/C [29]?
**A.** The viability, T/C was 54.6%.

**Q.** And the viability, T/C [30]?
**A.** The viability, T/C was 54.6%.

**Q.** What about the viability, T/C [31] of the same molecule?
**A.** Its viability, T/C is 36.5%.

**Q.** What about the viability, T/C [32] of the same molecule?
**A.** The viability, T/C was 44.9%.

**Q.** What about the viability, T/C [33] of the same molecule?
**A.** The viability, T/C was 38.9%.

**Q.** What about the viability, T/C [34] of the same molecule?
**A.** The viability, T/C was 30.1%.

**Q.** What about the viability, T/C [35] of the same molecule?
**A.** The viability, T/C was 44.1%.

**Q.** And the viability, T/C [36]?
**A.** The viability, T/C was 34%.
